{"source": "patent US20230398130A1", "about": "“METHODS AND COMPOSITIONS FOR DIFFERENTIATING STEM CELLS” (Massachusetts Institute of Technology, priority 2020, published 2023)", "key": {"[1]": {"system": "ISC-enriched organoids", "experiment": "Primary screen, 384-well 2.5-D organoid differentiation (ENR+CD, 6 days): basal lysozyme secretion (LYZ.NS)", "type": "cell-based, murine", "details": "for Dose.FC.LYZ.NS (log 2 fold change, basal lysozyme secretion) / Dose.FC.LYZ.NS (log 2 fold change): vs plate median; for Dose.FC.LYZ.NS: ENR+CD 6 days, FC vs plate median; for Z.LYZ.NS: standard z score of FC", "excerpt": "(§1) High-throughput screening."}, "[2]": {"system": "ISC-enriched organoids", "experiment": "Primary screen, 384-well 2.5-D organoid differentiation (ENR+CD, 6 days): carbachol-induced lysozyme secretion (LYZ.S)", "type": "cell-based, murine", "details": "for Dose.FC.LYZ.S (log 2 fold change, carbachol-induced lysozyme secretion) / Dose.FC.LYZ.S (log 2 fold change): vs plate median; for Dose.FC.LYZ.S / Dose.FC.LYZ.S (log 2 fold change): primary screen; for Dose.FC.LYZ.S: ENR+CD 6 days, FC vs plate median", "excerpt": "as §1"}, "[3]": {"system": "ISC-enriched organoids", "experiment": "Primary screen, 384-well 2.5-D organoid differentiation (ENR+CD, 6 days, Target Selective Inhibitor Library, vs whole-plate median): ATP (CellTiter-Glo 3D, CTG)", "details": "for Dose.FC.CTG (log 2 fold change, ATP) / Dose.FC.CTG (log 2 fold change): vs plate median; for Dose.FC.CTG: ENR+CD 6 days, FC vs plate median; for Z.CTG: standard z score of FC"}, "[4]": {"details": "dose 0.08 uM (1st of 4 lines per treatment; dose not printed in this part)"}, "[5]": {"details": "dose 0.40 uM (2nd of 4 lines per treatment; dose not printed in this part)"}, "[6]": {"details": "dose 2.00 uM (3rd of 4 lines per treatment; dose not printed in this part)"}, "[7]": {"details": "dose 10.00 uM (4th of 4 lines per treatment; dose not printed in this part)"}}, "data": [{"molecule": "COc1nc(C)cnc1NS(=O)(=O)c1cccnc1-c1ccc(-c2nnco2)cc1", "note": "[Zibotentan (ZD4054)]", "values": [{"measurement": "Z.LYZ.NS (standard z score)", "setting": "[1]; dose 0.08 uM", "value": 0.820}, {"measurement": "Dose.FC.LYZ.NS (log 2 fold change, basal lysozyme secretion)", "setting": "[1]; dose 0.08 uM", "value": 0.094}, {"measurement": "Z.LYZ.NS (standard z score)", "setting": "[1]; dose 0.40 uM", "value": 0.474}, {"measurement": "Dose.FC.LYZ.NS (log 2 fold change, basal lysozyme secretion)", "setting": "[1]; dose 0.40 uM", "value": 0.054}, {"measurement": "Z.LYZ.NS (standard z score)", "setting": "[1]; dose 2.00 uM", "value": "−0.029"}, {"measurement": "Dose.FC.LYZ.NS (log 2 fold change, basal lysozyme secretion)", "setting": "[1]; dose 2.00 uM", "value": "−0.003"}, {"measurement": "Z.LYZ.NS (standard z score)", "setting": "[1]; dose 10.00 uM", "value": 0.877}, {"measurement": "Dose.FC.LYZ.NS (log 2 fold change, basal lysozyme secretion)", "setting": "[1]; dose 10.00 uM", "value": 0.101}, {"measurement": "Dose.FC.LYZ.S (log 2 fold change, carbachol-induced lysozyme secretion)", "setting": "[2]; dose 0.08 uM", "value": 0.168}, {"measurement": "Dose.FC.LYZ.S (log 2 fold change, carbachol-induced lysozyme secretion)", "setting": "[2]; dose 0.40 uM", "value": 0.130}, {"measurement": "Dose.FC.LYZ.S (log 2 fold change, carbachol-induced lysozyme secretion)", "setting": "[2]; dose 2.00 uM", "value": "−0.038"}, {"measurement": "Dose.FC.LYZ.S (log 2 fold change, carbachol-induced lysozyme secretion)", "setting": "[2]; dose 10.00 uM", "value": 0.050}, {"measurement": "Z.CTG (standard z score)", "setting": "[3]; dose 0.08 uM", "value": 0.249}, {"measurement": "Dose.FC.CTG (log 2 fold change, ATP)", "setting": "[3]; dose 0.08 uM", "value": 0.104}, {"measurement": "Z.CTG (standard z score)", "setting": "[3]; dose 0.40 uM", "value": "−0.022"}, {"measurement": "Dose.FC.CTG (log 2 fold change, ATP)", "setting": "[3]; dose 0.40 uM", "value": "−0.009"}, {"measurement": "Z.CTG (standard z score)", "setting": "[3]; dose 2.00 uM", "value": "−1.834"}, {"measurement": "Dose.FC.CTG (log 2 fold change, ATP)", "setting": "[3]; dose 2.00 uM", "value": "−0.768"}, {"measurement": "Z.CTG (standard z score)", "setting": "[3]; dose 10.00 uM", "value": "−0.003"}, {"measurement": "Dose.FC.CTG (log 2 fold change, ATP)", "setting": "[3]; dose 10.00 uM", "value": "−0.001"}]}, {"molecule": "CC(C)N(CC[C@H](c1ccccc1)c1cc(CO)ccc1O)C(C)C", "note": "[4CE°8C]", "values": [{"measurement": "SSMD.LYZ.NS_Rep (strictly standardized mean difference)", "setting": "[1]; [4]", "value": 0.497}, {"measurement": "SSMD.LYZ.NS_Rep (strictly standardized mean difference)", "setting": "[1]; [5]", "value": 0.226}, {"measurement": "SSMD.LYZ.NS_Rep (strictly standardized mean difference)", "setting": "[1]; [6]", "value": 0.128}, {"measurement": "SSMD.LYZ.NS_Rep (strictly standardized mean difference)", "setting": "[1]; [7]", "value": "−0.861"}, {"measurement": "Dose.FC.LYZ.NS", "setting": "[1]; primary screen, dose 0.08 uM", "value": 0.069, "unit": "log 2 fold change"}, {"measurement": "Z.LYZ.NS", "setting": "[1]; primary screen, dose 0.08 uM", "value": 0.601}, {"measurement": "Dose.FC.LYZ.NS", "setting": "[1]; primary screen, dose 0.40 uM", "value": 0.047, "unit": "log 2 fold change"}, {"measurement": "Z.LYZ.NS", "setting": "[1]; primary screen, dose 0.40 uM", "value": 0.413}, {"measurement": "Dose.FC.LYZ.NS", "setting": "[1]; primary screen, dose 2.00 uM", "value": 0.016, "unit": "log 2 fold change"}, {"measurement": "Z.LYZ.NS", "setting": "[1]; primary screen, dose 2.00 uM", "value": 0.138}, {"measurement": "Dose.FC.LYZ.NS", "setting": "[1]; primary screen, dose 10.00 uM", "value": "−0.095", "unit": "log 2 fold change"}, {"measurement": "Z.LYZ.NS", "setting": "[1]; primary screen, dose 10.00 uM", "value": "−0.827"}, {"measurement": "SSMD.LYZ.S_Rep (strictly standardized mean difference)", "setting": "[2]; [4]", "value": 0.194}, {"measurement": "Z.LYZ.S (standard z score)", "setting": "[2]; [4]", "value": 0.205}, {"measurement": "SSMD.LYZ.S_Rep (strictly standardized mean difference)", "setting": "[2]; [5]", "value": 0.053}, {"measurement": "Z.LYZ.S (standard z score)", "setting": "[2]; [5]", "value": 0.073}, {"measurement": "SSMD.LYZ.S_Rep (strictly standardized mean difference)", "setting": "[2]; [6]", "value": "−0.217"}, {"measurement": "Z.LYZ.S (standard z score)", "setting": "[2]; [6]", "value": "−0.358"}, {"measurement": "SSMD.LYZ.S_Rep (strictly standardized mean difference)", "setting": "[2]; [7]", "value": "−0.707"}, {"measurement": "Z.LYZ.S (standard z score)", "setting": "[2]; [7]", "value": "−0.836"}, {"measurement": "Dose.FC.LYZ.S", "setting": "[2]; dose 0.08 uM", "value": 0.032, "unit": "log 2 fold change"}, {"measurement": "Dose.FC.LYZ.S", "setting": "[2]; dose 0.40 uM", "value": 0.011, "unit": "log 2 fold change"}, {"measurement": "Dose.FC.LYZ.S", "setting": "[2]; dose 2.00 uM", "value": "−0.055", "unit": "log 2 fold change"}, {"measurement": "Dose.FC.LYZ.S", "setting": "[2]; dose 10.00 uM", "value": "−0.129", "unit": "log 2 fold change"}, {"measurement": "SSMD.CTG_Rep (strictly standardized mean difference)", "setting": "[3]; [4]", "value": "−0.402"}, {"measurement": "SSMD.CTG_Rep (strictly standardized mean difference)", "setting": "[3]; [5]", "value": 0.023}, {"measurement": "SSMD.CTG_Rep (strictly standardized mean difference)", "setting": "[3]; [6]", "value": "−0.340"}, {"measurement": "SSMD.CTG_Rep (strictly standardized mean difference)", "setting": "[3]; [7]", "value": "−0.109"}, {"measurement": "Dose.FC.CTG", "setting": "[3]; primary screen, dose 0.08 uM", "value": "−0.111", "unit": "log 2 fold change"}, {"measurement": "Z.CTG", "setting": "[3]; primary screen, dose 0.08 uM", "value": "−0.265"}, {"measurement": "Dose.FC.CTG", "setting": "[3]; primary screen, dose 0.40 uM", "value": 0.007, "unit": "log 2 fold change"}, {"measurement": "Z.CTG", "setting": "[3]; primary screen, dose 0.40 uM", "value": 0.018}, {"measurement": "Dose.FC.CTG", "setting": "[3]; primary screen, dose 2.00 uM", "value": "−0.162", "unit": "log 2 fold change"}, {"measurement": "Z.CTG", "setting": "[3]; primary screen, dose 2.00 uM", "value": "−0.387"}, {"measurement": "Dose.FC.CTG", "setting": "[3]; primary screen, dose 10.00 uM", "value": "−0.039", "unit": "log 2 fold change"}, {"measurement": "Z.CTG", "setting": "[3]; primary screen, dose 10.00 uM", "value": "−0.094"}]}, {"molecule": "COc1cc(OC)c(/C=C/S(=O)(=O)Cc2ccc(OC)c(NCC(=O)O)c2)c(OC)c1", "note": "[Rigosertib (ON-01910)]", "values": [{"measurement": "Z.LYZ.NS (standard z score)", "setting": "[1]; Dose 0.08 uM, primary screen", "value": "−2.105"}, {"measurement": "Dose.FC.LYZ.NS (log 2 fold change)", "setting": "[1]; Dose 0.08 uM, primary screen", "value": "−0.242"}, {"measurement": "Z.LYZ.NS (standard z score)", "setting": "[1]; Dose 0.40 uM, primary screen", "value": "−1.831"}, {"measurement": "Dose.FC.LYZ.NS (log 2 fold change)", "setting": "[1]; Dose 0.40 uM, primary screen", "value": "−0.210"}, {"measurement": "Z.LYZ.NS (standard z score)", "setting": "[1]; Dose 2.00 uM, primary screen", "value": "−2.306"}, {"measurement": "Dose.FC.LYZ.NS (log 2 fold change)", "setting": "[1]; Dose 2.00 uM, primary screen", "value": "−0.265"}, {"measurement": "Z.LYZ.NS (standard z score)", "setting": "[1]; Dose 10.00 uM, primary screen", "value": "−2.107"}, {"measurement": "Dose.FC.LYZ.NS (log 2 fold change)", "setting": "[1]; Dose 10.00 uM, primary screen", "value": "−0.242"}, {"measurement": "Dose.FC.LYZ.S (log 2 fold change)", "setting": "[2]; Dose 0.08 uM", "value": "−0.309"}, {"measurement": "Dose.FC.LYZ.S (log 2 fold change)", "setting": "[2]; Dose 0.40 uM", "value": "−0.355"}, {"measurement": "Dose.FC.LYZ.S (log 2 fold change)", "setting": "[2]; Dose 2.00 uM", "value": "−0.340"}, {"measurement": "Dose.FC.LYZ.S (log 2 fold change)", "setting": "[2]; Dose 10.00 uM", "value": "−0.330"}, {"measurement": "Z.CTG (standard z score)", "setting": "[3]; Dose 0.08 uM, primary screen", "value": "−2.162"}, {"measurement": "Dose.FC.CTG (log 2 fold change)", "setting": "[3]; Dose 0.08 uM, primary screen", "value": "−0.905"}, {"measurement": "Z.CTG (standard z score)", "setting": "[3]; Dose 0.40 uM, primary screen", "value": "−3.069"}, {"measurement": "Dose.FC.CTG (log 2 fold change)", "setting": "[3]; Dose 0.40 uM, primary screen", "value": "−1.285"}, {"measurement": "Z.CTG (standard z score)", "setting": "[3]; Dose 2.00 uM, primary screen", "value": "−3.984"}, {"measurement": "Dose.FC.CTG (log 2 fold change)", "setting": "[3]; Dose 2.00 uM, primary screen", "value": "−1.668"}, {"measurement": "Z.CTG (standard z score)", "setting": "[3]; Dose 10.00 uM, primary screen", "value": "−2.022"}, {"measurement": "Dose.FC.CTG (log 2 fold change)", "setting": "[3]; Dose 10.00 uM, primary screen", "value": "−0.847"}]}]}
